Test results taken from patent US12264159B2, “Functionalized heterocycles as antiviral agents” (Enanta Pharmaceuticals, Inc., priority 2018, dated 2025).

Legend:
HBV in 2.2.15 cells = test: 2.2.15 cells: viral product in cell lysates quantified via quantitative real time PCR; assay type: cell-based, hepatitis B virus (HBV); conditions: Hepatitis B virus, 120 h, day 5 post treatment, 50% reduction of viral product vs no drug controls, readout (qPCR, HBsAg or HBeAg) not specified for the column
Experimental: 2.2.15 cells are passaged upon attaining confluency in DMEM/F12 media in the presence of 10% FBS, Penn/Strep, and 250 ug/mL G418. Novel compounds are 5 fold serially diluted in DMSO and added to 96 well plates containing 35,000 cells/well at a 1:200 dilution so that the final concentration of DMSO is 0.5%. On day 5, post treatment cell lysates and supernatants are harvested for analysis.
Cells are lysed using Agilent Sidestep Lysis buffer, diluted 1:100 and quantified via quantitative real time PCR. Commercially available ELISA kits are used to quantitate the viral proteins HBsAg (Alpco) or HBeAg (US Biological) by following the manufacturer's recommended protocol after diluting samples to match the linear range of their respective assays. Irrespective of readout, compound concentrations that reduce viral product accumulation in the cell lysates or supernatants by 50% relative to no drug controls (EC50) are reported; EC50 ranges are as follows: A<0.1 μM; B 0.2-1 μM; C>1 μM.

[1] = Compound induced cellular toxicity in HepG2 cells, ATPlite 1Step; assay type: cell-based; conditions: human, three days exposure, 50% reduction of total ATP vs no drug controls
Experimental: At day 3, post seeding cells are treated with ATPlite 1Step according to the manufacturer's instructions.

SMILES | EC50 (HBV in 2.2.15 cells) [µM] | CC50 at 3 days [1] [µM]
COc1ccccc1-c1cc2n(n1)C[C@@H](C(C)(C)C)n1cc(C(=O)O)c(=O)cc1-2 [Example 12] | < 0.1 | > 25
CC(C)(C)[C@@H]1Cn2nc(-c3cccc4c3OC(F)(F)O4)c(Cl)c2-c2cc(=O)c(C(=O)O)cn21 [Example 88, (R)-6-(tert-butyl)-1-chloro-2-(2,2-difluorobenzo[d][1,3]dioxol-4-yl)-10-oxo-5,6-dihydro-10H-pyrazolo[1,5-a]pyrido[2,1-c]pyrazine-9-carboxylic acid] | < 0.1 | > 25
CC(C)[C@@H]1Cn2nc(-c3ccc(O)cc3)c(-c3ccc(O)cc3)c2-c2c(F)c(=O)c(C(=O)O)cn21 [Example 191, (R)-11-fluoro-1,2-bis(4-hydroxyphenyl)-6-isopropyl-10-oxo-5,6-dihydro-10H-pyrazolo[1,5-a]pyrido[2,1-c]pyrazine-9-carboxylic acid] | < 0.1 | > 25
CC(C)(C)[C@@H]1Cn2nc(-c3ccccc3OCC3CC3)cc2-c2cc(=O)c(C(=O)O)cn21 [Example 75, (R)-6-(tert-butyl)-2-(2-(cyclopropylmethoxy)phenyl)-10-oxo-5,6-dihydro-10H-pyrazolo[1,5-a]pyrido[2,2-c]pyrazine-12-carboxylic acid] | < 0.1 | > 25
CC(C)(C)[C@@H]1Cn2nc(C3CC3)c(-c3cccc4c3OC(F)(F)O4)c2-c2cc(=O)c(C(=O)O)cn21 [Example 150, (R)-6-(tert-butyl)-2-cyclopropyl-1-(2,2-difluorobenzo[d][1,3]dioxol-4-yl)-10-oxo-5,6-dihydro-10H-pyrazolo[1,5-a]pyrido[2,1-c]pyrazine-9-carboxylic acid] | < 0.1 | > 25
CC(C)[C@@H]1Cn2nc(-c3ccc(O)cc3)c(-c3ccc(O)cc3)c2-c2cc(=O)c(C(=O)O)cn21 [Example 172, (R)-1,2-bis(4-hydroxyphenyl)-6-isopropyl-10-oxo-5,6-dihydro-10H-pyrazolo[1,5-a]pyrido[2,1-c]pyrazine-9-carboxylic acid] | < 0.1 | > 25
CC(C)(C)[C@@H]1Cn2ncc(-c3ccc(F)c(F)c3)c2-c2cc(=O)c(C(=O)O)cn21 [Example 110, (R)-6-(tert-butyl)-1-(3,4-difluorophenyl)-10-oxo-5,6-dihydro-10H-pyrazolo[1,5-a]pyrido[2,1-c]pyrazine-9-carboxylic acid] | < 0.1 | < 10
CC(C)[C@@H]1Cn2nc(-c3ccccc3F)c(-c3ccccc3F)c2-c2cc(=O)c(C(=O)O)cn21 [Example 171, (R)-1,2-bis(2-fluorophenyl)-6-isopropyl-10-oxo-5,6-dihydro-10H-pyrazolo[1,5-a]pyrido[2,1-c]pyrazine-9-carboxylic acid] | < 0.1 | > 25
CC(C)(C)[C@@H]1Cn2nc(-c3ccccc3CO)cc2-c2cc(=O)c(C(=O)O)cn21 [Example 84, (R)-6-(tert-butyl)-2-(2-(hydroxymethyl)phenyl)-10-oxo-5,6-dihydro-10H-pyrazolo[1,5-a]pyrido[2,2-c]pyrazine-12-carboxylic acid] | 0.2 to 1 | > 25
CC(C)(C)[C@@H]1Cn2ncc(-c3ccccc3)c2-c2cc(=O)c(C(=O)O)cn21 [Example 107, (R)-6-(tert-butyl)-10-oxo-1-phenyl-5,6-dihydro-10H-pyrazolo[1,5-a]pyrido[2,1-c]pyrazine-9-carboxylic acid] | < 0.1 | < 10
CC(C)[C@@H]1Cn2nc(C3CC3)c(-c3ccccc3F)c2-c2cc(=O)c(C(=O)O)cn21 [Example 129, (R)-2-cyclopropyl-1-(2-fluorophenyl)-6-isopropyl-10-oxo-5,6-dihydro-10H-pyrazolo[1,5-a]pyrido[2,1-c]pyrazine-9-carboxylic acid] | < 0.1 | > 25
CC(C)(C)[C@@H]1Cn2nc(-c3cccc4occc34)cc2-c2cc(=O)c(C(=O)O)cn21 [Example 28, (R)-2-(benzofuran-4-yl)-6-(tert-butyl)-10-oxo-5,6-dihydro-10H-pyrazolo[1,5-a]pyrido[2,2-c]pyrazine-12-carboxylic acid] | < 0.1 | > 25
COc1cccc(-c2cc3n(n2)C[C@@H](C(C)(C)C)n2cc(C(=O)O)c(=O)cc2-3)c1OC [Example 23, (R)-6-(tert-butyl)-2-(2,3-dimethoxyphenyl)-10-oxo-5,6-dihydro-10H-pyrazolo[1,5-a]pyrido[2,2-c]pyrazine-12-carboxylic acid] | 0.2 to 1 | > 25
CC(C)(C)[C@@H]1Cn2cnc(-c3ccc(F)cc3)c2-c2cc(=O)c(C(=O)O)cn21 [Example 207, (R)-6-(tert-butyl)-1-(4-fluorophenyl)-10-oxo-5,6-dihydro-10H-imidazo[1,5-a]pyrido[2,1-c]pyrazine-9-carboxylic acid] | < 0.1 | > 25
CC(C)(C)[C@@H]1Cn2nc(-c3ccccc3OC(F)F)cc2-c2cc(=O)c(C(=O)O)cn21 [Example 68, (R)-6-(tert-butyl)-2-(2-(difluoromethoxy)phenyl)-10-oxo-5,6-dihydro-10H-pyrazolo[1,5-a]pyrido[2,2-c]pyrazine-12-carboxylic acid] | < 0.1 | > 25
CC(C)[C@@H]1Cn2nc(C3CC3)c(-c3ccncc3)c2-c2cc(=O)c(C(=O)O)cn21 [Example 144, (R)-2-cyclopropyl-6-isopropyl-10-oxo-1-(pyridin-4-yl)-5,6-dihydro-10H-pyrazolo[1,5-a]pyrido[2,1-c]pyrazine-9-carboxylic acid] | < 0.1 | –
CC(C)(C)[C@@H]1Cn2ncc(-c3ccc(OC(F)(F)F)cc3)c2-c2cc(=O)c(C(=O)O)cn21 [Example 117, (R)-6-(tert-butyl)-10-oxo-1-(4-(trifluoromethoxy)phenyl)-5,6-dihydro-10H-pyrazolo[1,5-a]pyrido[2,1-c]pyrazine-9-carboxylic acid] | > 1 | –
CC(C)[C@@H]1Cn2nc(-c3cccnc3)c(-c3cccnc3)c2-c2c(F)c(=O)c(C(=O)O)cn21 [Example 189, (R)-11-fluoro-6-isopropyl-10-oxo-1,2-di(pyridin-3-yl)-5,6-dihydro-10H-pyrazolo[1,5-a]pyrido[2,1-c]pyrazine-9-carboxylic acid] | 0.2 to 1 | –
CC(C)[C@@H]1Cn2nc(-c3cccc(O)c3)c(-c3cccc(O)c3)c2-c2c(F)c(=O)c(C(=O)O)cn21 [Example 190, (R)-11-fluoro-1,2-bis(3-hydroxyphenyl)-6-isopropyl-10-oxo-5,6-dihydro-10H-pyrazolo[1,5-a]pyrido[2,1-c]pyrazine-9-carboxylic acid] | 0.2 to 1 | –
CC(C)[C@@H]1Cn2nc(-c3ccnnc3)c(-c3ccnnc3)c2-c2c(F)c(=O)c(C(=O)O)cn21 [Example 183, (R)-11-fluoro-6-isopropyl-10-oxo-1,2-di(pyridazin-4-yl)-5,6-dihydro-10H-pyrazolo[1,5-a]pyrido[2,1-c]pyrazine-9-carboxylic acid] | 0.2 to 1 | –
CC(C)[C@@H]1Cn2nc(-c3cncc(F)c3)c(-c3cncc(F)c3)c2-c2cc(=O)c(C(=O)O)cn21 [Example 174, (R)-1,2-bis(5-fluoropyridin-3-yl)-6-isopropyl-10-oxo-5,6-dihydro-10H-pyrazolo[1,5-a]pyrido[2,1-c]pyrazine-9-carboxylic acid] | 0.2 to 1 | –
